Assay results from patent US20050143468A1, “Method of treating vascular endothelial growth factor mediated vascular disorders” (priority 2002, published 2005).

Test system: choroidal neovascularization
Test: choroidal NV in a mouse model, topical administration
Assay type: in vivo
Conditions: applicant's previous findings

Question: With NC(=O)Cc1cccc(C(=O)c2ccccc2)c1N [nepafenac] as the molecule, how does the “choroidal NV” value read?
Answer: inhibited
